US8357379B2, “High concentration baclofen preparations” (Board of Regents, The University of Texas System, priority 2004, dated 2013)
Values after ≈ are worked out from the molar mass of the structure shown. Marks after values point to notes of the source that are not given here.

What was measured:
Format in all cases: physicochemical
[1] = Stability-indicating HPLC analysis of baclofen concentration / chemical stability; settings: for Chemical Stability (% Remaining): room temperature
Protocol: The test solutions in vials and syringes are thoroughly mixed prior to sampling. A 1-mL sample of each test solution from three test syringes and three test vials is collected and chemically analyzed. […] Triplicate HPLC determinations are performed at each time point if needed to determine the maximum stability of baclofen. The contents of the remaining containers are visually inspected at each assay time point and 6-mL samples are collected and fully evaluated for physical stability as indicated under Physical Stability Evaluation above after 1, 3, 7, 14, 21, 30 and 60 days.
HPLC Analysis to Confirm Baclofen Concentration. A stability-indicating HPLC analytical method adapted from published methods was used to determine the concentration of the baclofen samples evaluated in this testing (Sitaram et al., 1997; Gupta et al., 1998; Johnson C E, et al., 1993; Allen L V, et al., 1996. This method was used to document that at the higher concentrations the entire amount of baclofen had dissolved, and the solutions were near the target concentrations. All tested sample solutions were filtered through 0.22-micron filters to remove remaining undissolved drug, if any, prior to analysis. The HPLC analytical method used is cited in Tables 1 and 2. […] Initial baclofen concentrations for the nominally 4, 5, 6, and 8 mg/mL test solutions were within 93 to 104% of the target concentrations.
The liquid chromatograph is a Waters LC Module-1 Plus having a multisolvent pump, variable wavelength UV detector, and autosampler in one unit. The system is also controlled and integrated by a personal computer running chromatography management software.

[2] = Physical stability evaluation (visual inspection, Tyndall beam, turbidity, particle counting) of stored baclofen solutions; settings: for Physical Stability (yes/no) / visual inspection at approximately 16 months: heat and sonication; for physical stability at twelve months: 12 months
[3] = Practical solubility by direct dissolution in normal saline, HPLC after 0.22-micron filtration; settings: about 23° C.
Protocol: The inventors attempted to prepare aqueous baclofen solutions at concentrations of 3 mg/mL, 4 mg/mL, and 5 mg/mL by direct dissolution in 0.9% sodium chloride injection, USP (normal saline). The normal saline was commercially procured by the inventors and was at ambient room temperature (about 23° C.) for use in the testing. Appropriate amounts of authentic baclofen powder were weighed and added to the normal saline and shaken to aid in dissolution. […] Both the 4-mg/mL and especially the 5-mg/mL concentration retained large amounts of undissolved powder. […] The solutions were visibly unacceptable for use as an injection. […] The inventors believe that this the concentration represents the “practical solubility” of baclofen.
As used herein, the “practical solubility” is the concentration of baclofen that can be dissolved using simple practical dissolution steps such as adding the powder to an aqueous solvent and then shaking or stirring the solvent by hand or with a mechanical device. When attempting to prepare solutions having concentrations higher than the practical solubility concentration, it is common to observe residual undissolved matter, precipitation of microparticulates, or both.

Chemical Stability (% Remaining) ([1]; 3 mg/ml, 24 months, calculated based on concentrations measured at six months): 101.7 ± 1.0^a % Remaining
Chemical Stability (% Remaining) ([1]; 3.5 mg/ml, 24 months, calculated based on concentrations measured at six months): 100.0 ± 0.4^a % Remaining
loss of drug during storage ([1]; 4 mg/mL, Examples 1 and 2, at least one year at 23° C.): no loss of drug
Chemical Stability (% Remaining) ([1]; 4 mg/ml, 12 months): 99.9 ± 0.5 % Remaining
Chemical Stability (% Remaining) ([1]; 4 mg/ml, 24 months, calculated based on concentrations measured at six months): 99.5 ± 1.2^a % Remaining
Chemical Stability (% Remaining) ([1]; 5 mg/ml, 12 months): 100.6 ± 0.5 % Remaining
Chemical Stability (% Remaining) ([1]; 6 mg/ml, 12 months): 102.9 ± 1.0 % Remaining
initial baclofen concentration relative to target concentration ([1]; nominally 4, 5, 6, and 8 mg/mL test solutions, filtered 0.22-micron, HPLC): 93 to 104%
Physical Stability (yes/no) ([2]; 3 mg/ml, room temperature, test period 24 months): yes
Physical Stability (yes/no) ([2]; 3.5 mg/ml, room temperature, test period 24 months): yes
time remained in solution ([2]; 4 mg/mL, Examples 1 and 2, refrigerated at 4° C. (maximum duration tested)): at least 60 days
time remained in solution, clear and free of visible particulates and microparticulate precipitation ([2]; 4 mg/mL, Examples 1 and 2, room temperature of 23° C.): at least one
time stayed in solution, clear and free of visible particulates and unacceptable microparticulates ([2]; 4 mg/mL, heat and sonication (Example 1) or heat and high speed stirring (Example 2), room temperature): over 12 months
Physical Stability (yes/no) ([2]; 4 mg/ml, room temperature, test period 12 months): yes
Physical Stability (yes/no) ([2]; 4 mg/ml, room temperature, test period 24 months): yes
time after which a precipitate developed ([2]; 5 mg/mL, refrigeration): 14 days
Physical Stability (yes/no) ([2]; 5 mg/ml, room temperature, test period 12 months): yes
time remained clear and free of unacceptable microparticulates ([2]; 6 mg/mL, all four methods (Examples 1-4), room temperature or 37° C.): at least 60 days
visual inspection at approximately 16 months ([2]; 6.0 mg/mL, room temperature): no change in its condition
Physical Stability (yes/no) ([2]; 6 mg/ml, room temperature, test period 12 months, no visible particulates to the unaided eye, trace microparticulates in a few vials): yes^b
time remained in solution ([2]; 8.0 mg/mL, heat and sonication (Example 1), room temperature): at least 30 days
time remained clear and free of unacceptable microparticulates before trace particulate precipitation ([2]; 8 mg/mL, heating and agitation (Examples 1 and 2), room temperature or 37° C.): 14 days
physical stability at 24 months ([2]; 3.0, 3.5 and 4.0 mg/mL, heat and sonication (Example 1), room temperature, 24 months, four methods of Example 11): physically stable by all four methods
visual inspection at approximately 16 months ([2]; 4.0 and 5.0 mg/mL, room temperature): no change in the solutions
solubility at 1 week ([3]; 0.9% sodium chloride injection, USP (normal saline), saline or isotonic, thermodynamic from solid, normal saline, putative 4 mg/mL and 5 mg/mL samples, shaking one week, filtered 0.22-micron, HPLC, read-out: amount of baclofen actually dissolved (practical solubility)): 3300 to 3500 µg/mL (≈ 15.4 to 16.4 mM)
complete dissolution by direct dissolution ([3]; 4-mg/mL and 5-mg/mL in normal saline, vigorous shaking 60 minutes, then automated shaking for one week): failed to result in complete dissolution
SMILES: NCC(CC(=O)O)c1ccc(Cl)cc1 (stereo not shown) [Baclofen, 4-amino-3-(p-chlorophenyl) butyric acid]
physical stability at twelve months ([2]; 6.0 mg/mL, heat and sonication (Example 1), room temperature): no visible particulates to the unaided eye, but did contain trace amounts of solid material
physical stability at twelve months ([2]; 4.0 and 5.0 mg/mL, heat and sonication (Example 1), room temperature): remained clear and no particulates were detected
